Here are results for eight compounds from patent publication US20110207732A1, “AZAINDOLE DERIVATIVES” (MERCK PATENT GESELLSCHAFT MIT BESCHRANKTER HAFTUNG, priority 2008, published 2011).

In data set [1] the target is T1, Met kinase (Homo sapiens, UniProt P08581). The data set is described as follows: Met kinase inhibition, flashplate method (enzyme). Set-up: 6His (N); purchased Upstate 14-526; host or cells: Sf21 insect cells (S. frugiperda), baculovirus. Type of data set: biochemical. As for the experimental part: The test plates used are 96-well Flashplate® microtitre plates from Perkin Elmer (Cat. No SMP200). The components of the kinase reaction described below are pipetted into the assay plate. The Met kinase and the substrate poly Ala-Glu-Lys-Tyr, (pAGLT, 6:2:5:1), are incubated for 3 hrs at room temperature with radioactively labelled ^33P-ATP in the presence and absence of test substances in a total volume of […]. The reaction is terminated using 150 μl of a 60 mM EDTA solution. After incubation for a further 30 min at room temperature, the supernatants are filtered off with suction, and the wells are washed three times with 200 μl of 0.9% NaCl solution each time. The measurement of the bound radioactivity is carried out by means of a scintillation measuring instrument (Topcount NXT, Perkin-Elmer).
The full value used is the inhibitor-free kinase reaction. This should be approximately in the range 6000-9000 cpm. The pharmacological zero value used is staurosporin in a final concentration of 0.1 mM. The inhibitory values (IC50) are determined using the RS1_MTS program.
30 μl of assay buffer 10 μl of substance to be tested in assay buffer with 10% of DMSO 10 μl of ATP (final concentration 1 μM cold, 0.35 μCi of ^33P-ATP) 50 μl of Met kinase/substrate mixture in assay buffer; • (10 ng of enzyme/well, 50 ng of pAGLT/well)

In data set [2] the target is T1, Met kinase. The data set is described as follows: Met kinase inhibition (cell). The class given is cell-based.

The term melting point denotes the temperature, or range, at which the solid turns liquid. Broadly, the IC50 is the concentration needed to halve the response being measured. Read a low IC50 as higher potency.

T1 sequence (P08581 25-1390): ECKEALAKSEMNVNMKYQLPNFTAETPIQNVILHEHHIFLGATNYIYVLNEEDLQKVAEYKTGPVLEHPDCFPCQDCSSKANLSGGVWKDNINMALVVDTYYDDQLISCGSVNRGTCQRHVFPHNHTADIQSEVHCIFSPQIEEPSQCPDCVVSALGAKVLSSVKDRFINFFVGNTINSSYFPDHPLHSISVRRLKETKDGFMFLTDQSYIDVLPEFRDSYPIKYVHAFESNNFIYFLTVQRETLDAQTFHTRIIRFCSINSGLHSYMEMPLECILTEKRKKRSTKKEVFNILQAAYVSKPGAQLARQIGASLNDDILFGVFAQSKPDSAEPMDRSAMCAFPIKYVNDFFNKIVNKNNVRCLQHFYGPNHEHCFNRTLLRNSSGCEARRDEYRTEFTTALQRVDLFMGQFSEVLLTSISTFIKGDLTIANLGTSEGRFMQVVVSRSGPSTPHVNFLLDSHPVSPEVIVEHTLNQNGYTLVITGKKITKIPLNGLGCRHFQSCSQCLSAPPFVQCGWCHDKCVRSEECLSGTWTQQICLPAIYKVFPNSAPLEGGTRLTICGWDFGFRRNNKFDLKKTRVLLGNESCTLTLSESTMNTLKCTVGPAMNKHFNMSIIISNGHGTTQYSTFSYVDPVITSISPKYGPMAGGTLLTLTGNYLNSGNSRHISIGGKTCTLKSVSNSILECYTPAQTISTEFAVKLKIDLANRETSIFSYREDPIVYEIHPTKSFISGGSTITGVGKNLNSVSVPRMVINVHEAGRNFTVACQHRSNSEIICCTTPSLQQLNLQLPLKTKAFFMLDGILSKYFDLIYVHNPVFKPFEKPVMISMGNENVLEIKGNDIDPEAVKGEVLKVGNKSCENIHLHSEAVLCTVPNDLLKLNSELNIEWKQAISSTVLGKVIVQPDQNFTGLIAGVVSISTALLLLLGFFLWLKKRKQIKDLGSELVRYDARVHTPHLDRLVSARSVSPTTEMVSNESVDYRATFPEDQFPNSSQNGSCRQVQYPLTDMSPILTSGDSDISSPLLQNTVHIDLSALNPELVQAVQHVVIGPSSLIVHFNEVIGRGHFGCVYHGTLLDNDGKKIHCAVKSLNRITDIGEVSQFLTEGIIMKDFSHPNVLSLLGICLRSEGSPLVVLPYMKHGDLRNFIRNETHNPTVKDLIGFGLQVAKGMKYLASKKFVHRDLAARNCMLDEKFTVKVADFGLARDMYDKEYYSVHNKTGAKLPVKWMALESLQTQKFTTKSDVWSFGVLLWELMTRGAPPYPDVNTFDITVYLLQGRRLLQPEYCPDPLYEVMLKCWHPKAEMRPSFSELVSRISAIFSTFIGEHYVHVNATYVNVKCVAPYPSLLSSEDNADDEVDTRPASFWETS

`N#Cc1ccc2[nH]c(-c3ccncc3)c(-c3ccc(F)cc3)c2n1` showed a melting point of 230 °C. Still for that read-out and setting: for `N#Cc1ccc2[nH]c(-c3cncnc3)c(-c3ccc(F)cc3)c2n1` [Compound A14, 3-(4-fluorophenyl)-2-(pyrimidin-5-yl)-1H-pyrrolo[3,2-b]pyridine-5-carbonitrile] the value was 230 to 232 °C. Turning to `N#Cc1ccc2[nH]c(-c3ccc(F)cc3)c(-c3ccncc3)c2n1` [Compound A20], on Met kinase [1], the IC50 is > 10 µM.

As for `N#Cc1ccc2[nH]c(-c3ccncc3)c(-c3cccc(F)c3)c2n1` [Compound A58], the results for the IC50 against Met kinase [1] and at Met kinase [2] were 0.1 to 10 µM and > 10 µM, respectively. In the same order, the values of `O=C(O)c1ccc2[nH]c(-c3ccncc3)c(-c3cccc(Cl)c3)c2n1` [Compound A59] are 0.1 to 10 µM and > 10 µM. The like results for `NC(=O)c1ccc2[nH]c(-c3ccncc3)c(-c3cccc(Cl)c3)c2n1` [Compound A60] were, in that order, 0.1 to 10 µM and > 10 µM. In the case of `O=C(NCCN1CCOCC1)c1ccc2[nH]c(-c3ccncc3)c(-c3cccc(Cl)c3)c2n1` [Compound A61], the IC50 against Met kinase [1] and against Met kinase [2] was > 10 µM in each case. On to `N#Cc1ccc2[nH]c(-c3cncnc3)c(-c3cccc(Cl)c3)c2n1` [Compound A62, 3-(3-Chlorophenyl)-2-pyrimidin-5-yl-1H-pyrrolo[3,2-b]pyridine-5-carbonitrile], for which the IC50 against Met kinase [1] is > 10 µM.
